According to US9150571B2, “Crystalline forms of fused amino pyridines as HSP90 inhibitors” (Debiopharm International SA, priority 2011, dated 2015):
Converted amounts (≈) assume the structure as drawn. Each block holds one compound with its values, some of them ahead of it.

Legend:
Format in all cases: physicochemical
[1] = Interconversion experiments in ethyl acetate suspension (thermodynamic stability of forms), XRPD; conditions: for temperature range in which the form is the most stable polymorph (Form I/II transition): from interconversion experiments at 5, 10, 15, 21 & 60° C.
Experimental: Interconversion experiments were carried out using Forms I, II and III at 5° C., 10° C., 15° C., 21° C. and 60° C. in ethyl acetate. Suspensions of approximately equivalent amounts (about 75 mg) of each form in ethyl acetate (1.2 mL) were prepared and agitated at different temperatures. The slurries were stirred and sampled periodically (200 μL aliquot) after 30 mins and over the period of 10 days or until when near complete or complete conversion had occurred. The sampled aliquot was filtered, air dried and analyzed by XRPD.
In solvent mediated conversions, seeds of all Forms are present and there is no activation energy barrier to interconversion. This technique is used to identify the ‘true’ transition temperature and the thermodynamic relationship between the Forms. In order to determine the order of stability between each individual form interconversion experiments were performed using suspensions of pairs of each form in ethyl acetate at 5, 10 and 15° C. and suspensions of all Forms together at 21° C. and 60° C. The stirred suspensions of Forms I, II and III were sampled after 0.5 hr (t0), after 1, 2 and 3 days (t1-3) and 6 and 10 days if required.

[2] = Solubility, EP (European Pharmacopoeia) aliquot addition method; conditions: 25° C., EP method (kinetic solubility)
Experimental: All samples to be tested were passed through number 180 and number 125 sieves to ensure that they were finely powdered prior to testing, i.e. not less than 95% of sample mass passed through a […] sieve and not more than 40% passed through a 38 μm sieve.
The vial containing the test material and chosen solvent was shaken on a vortex mixer for 1 minute. The vial was placed in a water bath maintained at 25° C.±0.5° C. for 15 minutes. If particles were still remaining, the vial was shaken again for 1 minute using the vortex mixer and returned to the water bath for a further 15 minutes.
Approximately 100 mg of the test material was weighed into a vial and 0.1 mL of the chosen solvent was added. This was treated as described in the procedure above. […] After each addition of solvent the contents of the vial were treated as described in the dissolving procedure. […] After the dissolving procedure was complete, the solubility of the material was visually determined. […] Results obtained were reported.
The solubility of Compound 1 Form I was determined by two different methods. The EP (European Pharmacopoeia) method is an aliquot addition method which gives a rough assessment of kinetic solubility. The equilibrium method requires the suspension of solid for an extended period in the dissolving medium. […]

[3] = Intrinsic dissolution rate (IDR); conditions: pH 5.0 USP buffer, 37° C., 50 RPM; Form I from one non capped pellet
Experimental: For intrinsic dissolution studies (IDR) an isocratic HPLC method with a shorter run time (10 mins) was used due to the high number of sample analyses required (Table 2).
Distek 8 mm intrinsic dissolution apparatus was used for the study. The three fixed screws on the surface plate were inserted through the three holes on the die and fastened with the supplied washers and nuts. 100 mg of test material was placed in the die cavity. The punch was inserted into the cavity and compressed, with the aid of a bench top hydraulic press for 30 sec at 1 ton pressure. The surface plate was disconnected from the die to expose a compact pellet of 0.5 cm^2 surface area. The pellets were checked for any breaks and cracks on the surface. Only the pellets with flat even surface with no irregularities were used for the study. The Viton gasket was placed around the threaded shoulder of the die and a polypropylene cap was screwed on to the threads. The assembly was immersed, pellet side up, into the bottom of the dissolution vessel (flat bottom) containing dissolution medium at 37° C. The media is degassed under helium purge for 15 min prior to use.
• Dissolution media: pH 5.0 USP buffer • Vessel volume: 900 mL • Rotation speed: 50 RPM • Temperature: 37° C.±0.5° C. • Sampling time points: 30, 60, 90, 120 and 150 mins • Sample size: 1 mL • Sample analysis: By HPLC (conditions in Table 2 above)
Three samples of Form I, II, III and trihydrate were checked for IDR in USP pH 5.0 buffer. The samples were checked for any changes in their surface after dropping into the dissolution medium. […] The particles relax on contact with water during dissolution, causing capping of the surface. So IDR was calculated for Form I based on drug release from one non capped pellet. […] The samples were collected manually through a cannula fitted with 10 μm inline filters. The samples collected from dissolution run were analyzed by HPLC.
The average of all three runs was used to plot and calculate the IDR of samples, with the exception of Form I. The average dissolution profile for each Form is shown in FIG. 12.
After the dissolution test, the remaining portion of the pressed discs were dried in air and examined by XRPD.

[4] = Dynamic vapour sorption (DVS) hygroscopicity
Experimental: Dynamic Vapour Sorption (DVS) was performed using a Hiden Analytical Instruments IGAsorp Vapour Sorption Balance. Approximately 15 mg of sample was placed into a wire-mesh vapour sorption balance pan, loaded into the IGAsorp vapour sorption balance and held at 25° C.±0.1° C. The sample was subjected to a step profile from 0 to 90% RH at 10% increments, followed by desorption from […] to 0% RH at 10% increments. The equilibrium criterion was set to 99.5% step completion within a minimum of 60 minutes and a maximum of 10 hours for each increment. The weight change during the sorption cycle was monitored, allowing for the hygroscopic nature of the sample to be determined. The data collection interval was in seconds.
DVS analysis was used to investigate the hygroscopicity of Compound 1 Form I (FIG. 11). […] The overall weight gain up to 95% RH was 0.06% and weight gained up to 80% RH only 0.08%.
After completion of the cycle, the sample was removed from the instrument and no weight change was observed.

[5] = Equilibrium solubility in buffer, HPLC
Experimental: Approximately 25 mg of test substance was weighed into glass test tubes. The relevant volume of buffer solution (10 mL) was added to each vessel. The tests were performed in duplicate. The vessels were lightly sealed and agitated at 25°C. in a shaking thermostatted water bath protected from light. Sampling was performed after 24 hours and thereafter not less than 20 hours between sample time points. Sampling was performed by filtration of a portion of the test slurry through a 0.2 μm filter and dilution in appropriate media for HPLC analysis.
Equilibrium solubility was determined by HPLC by using:
[formula] where the Standard Purity was taken as 95%.
(§1) Buffer pH 7.0 samples were prepared by removing approximately 1 mL of the solution from the appropriate glass test tube and filtering into a HPLC vial using a PTFE 0.2 μm syringe filter. The concentration of the Compound 1 in the filtrate was determined by comparison with data of the standard sample (about 0.25 mg/g).
as §1, with “5.0” for “7.0”, “The filtered solution was diluted by a factor of 5 and approximately 1 mL of this solution was added into a HPLC vial for analysis. The” for “The”
At the end of the solubility study, the solids were isolated from the experimental slurries, filtered, dried and analyzed by XRPD in order to determine the physical form.
The solubility of Compound 1 Form I was determined by two different methods. The EP (European Pharmacopoeia) method is an aliquot addition method which gives a rough assessment of kinetic solubility. The equilibrium method requires the suspension of solid for an extended period in the dissolving medium. […] The EP method indicated solubility of Compound 1 Form I to be insoluble in water and be soluble in ethanol at 33-100 mg/ml.
The concentration of the samples was assessed by HPLC.

[6] = Critical water activity for trihydrate formation in acetone/water; conditions: 21° C.
Experimental: Experiments to determine the critical water activity level with respect to trihydrate formation were performed in acetone/water. Different % v/v ratios of water in acetone were used for suspensions at 21° C. […] Using the Wilson VLE model, this equates to 0.38-0.49 or 0.35-0.44 using the UNIFAC model. This provides useful information for process chemists and formulators in later development.

thermodynamically most stable form ([1]; 21° C., ethyl acetate suspension of Forms I, II and III): thermodynamically most stable form
thermodynamically most stable form ([1]; 60° C., ethyl acetate suspension of Forms I, II and III): thermodynamically most stable form
temperature range in which the form is the most stable polymorph (Form I/II transition) [1]: above 18±2 °C
solubility at 15 min ([2]; organic solvent or mixture, ethanol): 33 to 100 mg/mL (≈ 74.6 to 226 mM)
solubility in water (EP method) ([2]; water): insoluble
IDR [3]: 0.101 mg cm^−2 min^−1
weight gained up to 80% RH ([4]; DVS, 25° C., up to 80% RH): 0.08%
overall weight gain up to 95% RH ([4]; DVS, 25° C., up to 95% RH): 0.06%
hygroscopicity classification (European Pharmacopoeia) ([4]; weight increase at 80% RH (25° C.)): non-hygroscopic
MEAN SOLUBILITY pH 5.1 ([5]; day 1, buffer pH 5.1, 25°C): 1.101 MG/G
MEAN SOLUBILITY pH 7.0 ([5]; day 1, buffer pH 7.0, 25°C): 0.074 MG/G
MEAN SOLUBILITY pH 5.1 ([5]; day 2, buffer pH 5.1, 25°C): 0.735 MG/G
MEAN SOLUBILITY pH 7.0 ([5]; day 2, buffer pH 7.0, 25°C): 0.043 MG/G
MEAN SOLUBILITY pH 5.1 ([5]; day 3, buffer pH 5.1, 25°C): 0.587 MG/G
MEAN SOLUBILITY pH 7.0 ([5]; day 3, buffer pH 7.0, 25°C): 0.031 MG/G
MEAN SOLUBILITY pH 5.1 ([5]; day 4, buffer pH 5.1, 25°C): 0.507 MG/G
MEAN SOLUBILITY pH 7.0 ([5]; day 4, buffer pH 7.0, 25°C): 0.025 MG/G
SMILES: CN(C)c1cc2c(cc1Sc1nc3c(N)nccc3n1CCNCC(C)(C)C)OCO2 [Compound 1 Form I]

IDR [3]: 0.266 mg cm^−2 min^−1
SMILES: CN(C)c1cc2c(cc1Sc1nc3c(N)nccc3n1CCNCC(C)(C)C)OCO2 [Form III]

thermodynamically most stable form ([1]; 5° C., ethyl acetate suspension of pairs of forms): thermodynamically most stable form
thermodynamically most stable form ([1]; 10° C., ethyl acetate suspension of pairs of forms): thermodynamically most stable form
thermodynamically most stable form ([1]; 15° C., ethyl acetate suspension of pairs of forms): thermodynamically most stable form
temperature range in which the form is the most stable polymorph (Form I/II transition) [1]: lower than 18±2 °C
IDR [3]: 0.098 mg cm^−2 min^−1
SMILES: CN(C)c1cc2c(cc1Sc1nc3c(N)nccc3n1CCNCC(C)(C)C)OCO2 [Form II]

critical water activity, UNIFAC model ([6]; UNIFAC model): 0.35-0.44
critical water activity, Wilson VLE model ([6]; Wilson VLE model): 0.38-0.49
IDR [3]: 0.184 mg cm^−2 min^−1
SMILES: CN(C)c1cc2c(cc1Sc1nc3c(N)nccc3n1CCNCC(C)(C)C)OCO2 [Trihydrate]
